# Measurements as given in paper PMC3272775 (Journal of Medicinal Chemistry, 2012).
# “Also recorded” adds a separate entry of the source. Counter-ions that a name gives are not always drawn.
# What was measured:
# [1] = molecular target: α1β1γδ-nAChR (Homo sapiens, UniProt P02708+P07510+Q07001); test: 86Rb+ efflux assay in TE671/RD cells; assay type: cell-based
# [2] = chronic and neuropathic pain; ref [45], [46]; cited from earlier work
# [3] = molecular target: CYP2C19 (Homo sapiens, UniProt P33261); test: Multiple CYP inhibition assay in human liver microsomes, CYP2C19; assay type: in vitro ADME
# [4] = molecular target: CYP2D6 (Homo sapiens, UniProt P10635); test: Multiple CYP inhibition assay in human liver microsomes, CYP2D6; assay type: in vitro ADME
# [5] = system: about 45 other CNS neurotransmitter receptors and transporters; test: Broad-range screening; assay type: binding; conditions: 10 μM; about 45 receptors and transporters
# [6] = molecular target: T1, CYP1A2 (Homo sapiens, UniProt P05177); test: Multiple CYP inhibition assay in human liver microsomes, CYP1A2; assay type: in vitro ADME
# T1 sequence (P05177 1-516): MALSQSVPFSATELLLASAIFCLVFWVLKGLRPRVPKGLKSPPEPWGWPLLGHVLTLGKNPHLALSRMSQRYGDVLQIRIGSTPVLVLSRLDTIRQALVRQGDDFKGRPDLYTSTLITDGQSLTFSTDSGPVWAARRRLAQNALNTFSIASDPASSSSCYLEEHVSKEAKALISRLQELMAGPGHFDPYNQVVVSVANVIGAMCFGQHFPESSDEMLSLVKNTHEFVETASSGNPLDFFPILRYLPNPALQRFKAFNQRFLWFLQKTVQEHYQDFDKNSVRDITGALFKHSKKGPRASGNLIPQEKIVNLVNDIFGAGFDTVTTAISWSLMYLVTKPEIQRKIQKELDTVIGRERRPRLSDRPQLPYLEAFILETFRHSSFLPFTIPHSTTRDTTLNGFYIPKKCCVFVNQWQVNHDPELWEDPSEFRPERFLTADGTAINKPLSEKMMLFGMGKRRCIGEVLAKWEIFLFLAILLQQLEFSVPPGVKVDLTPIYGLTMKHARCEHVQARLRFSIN
# [7] = molecular target: α3β4*-nAChR (Homo sapiens, UniProt P30926+P32297); test: 86Rb+ efflux assay in SH-SY5Y cells; assay type: cell-based; conditions: efficacies similar to that of carbamylcholine
# [8] = molecular target: T2, CYP2B6 (Homo sapiens, UniProt P20813); test: Multiple CYP inhibition assay in human liver microsomes, CYP2B6; assay type: in vitro ADME
# T2 sequence (P20813 1-491): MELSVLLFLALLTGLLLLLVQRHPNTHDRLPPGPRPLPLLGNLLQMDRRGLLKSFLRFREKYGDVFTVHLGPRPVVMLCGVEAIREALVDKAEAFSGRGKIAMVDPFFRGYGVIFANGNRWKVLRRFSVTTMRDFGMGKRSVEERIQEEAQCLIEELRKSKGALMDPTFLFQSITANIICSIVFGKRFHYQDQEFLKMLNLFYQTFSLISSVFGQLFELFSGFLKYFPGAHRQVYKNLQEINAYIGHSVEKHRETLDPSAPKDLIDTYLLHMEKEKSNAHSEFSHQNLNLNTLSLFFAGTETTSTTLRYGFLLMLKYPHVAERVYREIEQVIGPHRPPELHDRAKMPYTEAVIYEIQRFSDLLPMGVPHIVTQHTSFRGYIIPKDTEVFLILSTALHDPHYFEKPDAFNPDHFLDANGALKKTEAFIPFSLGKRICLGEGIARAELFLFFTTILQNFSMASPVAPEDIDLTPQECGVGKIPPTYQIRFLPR
# [9] = molecular target: CYP3A4 (Homo sapiens, UniProt P08684); test: Multiple CYP inhibition assay in human liver microsomes, CYP3A4; assay type: in vitro ADME
# [10] = molecular target: human α4β2-nAChR (Homo sapiens, UniProt P17787+P43681); test: 86Rb+ efflux assay in SH-EP1-hα4β2 cells; assay type: cell-based; conditions: efficacies similar to that of carbamylcholine
# [11] = system: immobility in the mouse forced swim test; test: Mouse forced swim test; assay type: in vivo
# [12] = molecular target: CYP2C9 (Homo sapiens, UniProt P11712); test: Multiple CYP inhibition assay in human liver microsomes, CYP2C9; assay type: in vitro ADME
# [13] = system: α4β2-nAChR from rat cerebral cortical membranes; conditions: ref [39], [40]; cited from earlier work
# Sequence of α1β1γδ-nAChR (P02708 21-457): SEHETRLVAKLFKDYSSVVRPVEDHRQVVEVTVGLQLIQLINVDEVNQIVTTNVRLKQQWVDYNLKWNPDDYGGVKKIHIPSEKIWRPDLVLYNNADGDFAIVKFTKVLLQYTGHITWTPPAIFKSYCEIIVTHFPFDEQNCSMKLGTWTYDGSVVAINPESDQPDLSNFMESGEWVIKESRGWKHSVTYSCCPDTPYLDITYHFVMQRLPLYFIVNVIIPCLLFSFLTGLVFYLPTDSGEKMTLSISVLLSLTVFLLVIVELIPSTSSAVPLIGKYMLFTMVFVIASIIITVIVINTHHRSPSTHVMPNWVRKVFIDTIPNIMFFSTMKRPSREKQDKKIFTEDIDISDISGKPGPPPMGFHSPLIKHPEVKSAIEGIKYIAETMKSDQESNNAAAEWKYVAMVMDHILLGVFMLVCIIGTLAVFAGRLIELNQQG
# Sequence of α1β1γδ-nAChR (P11230 24-501 partner): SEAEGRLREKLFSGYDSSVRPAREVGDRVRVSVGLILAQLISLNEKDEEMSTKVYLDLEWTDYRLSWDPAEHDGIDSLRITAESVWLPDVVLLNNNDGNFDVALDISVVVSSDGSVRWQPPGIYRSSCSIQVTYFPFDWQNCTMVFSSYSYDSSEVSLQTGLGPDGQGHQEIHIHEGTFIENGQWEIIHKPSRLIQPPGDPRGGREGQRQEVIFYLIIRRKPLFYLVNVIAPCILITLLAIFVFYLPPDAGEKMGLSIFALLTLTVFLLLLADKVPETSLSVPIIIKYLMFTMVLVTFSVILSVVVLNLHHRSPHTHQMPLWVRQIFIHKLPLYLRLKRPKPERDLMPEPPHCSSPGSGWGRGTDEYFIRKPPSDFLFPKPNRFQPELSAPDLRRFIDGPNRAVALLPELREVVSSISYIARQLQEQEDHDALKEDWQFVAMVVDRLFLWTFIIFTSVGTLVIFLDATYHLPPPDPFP
# Sequence of α1β1γδ-nAChR (P07510 23-517): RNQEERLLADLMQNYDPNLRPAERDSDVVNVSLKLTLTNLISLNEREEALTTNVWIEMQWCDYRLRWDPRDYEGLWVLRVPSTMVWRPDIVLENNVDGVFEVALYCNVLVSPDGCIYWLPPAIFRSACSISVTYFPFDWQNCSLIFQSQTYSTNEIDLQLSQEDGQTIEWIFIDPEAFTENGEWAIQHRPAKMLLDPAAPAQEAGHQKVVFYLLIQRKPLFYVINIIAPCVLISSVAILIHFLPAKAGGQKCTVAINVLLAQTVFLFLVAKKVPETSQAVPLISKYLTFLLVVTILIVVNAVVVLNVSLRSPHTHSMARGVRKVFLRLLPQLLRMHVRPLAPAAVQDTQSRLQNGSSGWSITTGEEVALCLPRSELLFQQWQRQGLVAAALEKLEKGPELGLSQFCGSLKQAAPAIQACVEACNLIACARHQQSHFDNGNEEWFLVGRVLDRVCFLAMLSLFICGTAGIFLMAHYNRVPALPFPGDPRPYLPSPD
# Sequence of α1β1γδ-nAChR (Q07001 22-517): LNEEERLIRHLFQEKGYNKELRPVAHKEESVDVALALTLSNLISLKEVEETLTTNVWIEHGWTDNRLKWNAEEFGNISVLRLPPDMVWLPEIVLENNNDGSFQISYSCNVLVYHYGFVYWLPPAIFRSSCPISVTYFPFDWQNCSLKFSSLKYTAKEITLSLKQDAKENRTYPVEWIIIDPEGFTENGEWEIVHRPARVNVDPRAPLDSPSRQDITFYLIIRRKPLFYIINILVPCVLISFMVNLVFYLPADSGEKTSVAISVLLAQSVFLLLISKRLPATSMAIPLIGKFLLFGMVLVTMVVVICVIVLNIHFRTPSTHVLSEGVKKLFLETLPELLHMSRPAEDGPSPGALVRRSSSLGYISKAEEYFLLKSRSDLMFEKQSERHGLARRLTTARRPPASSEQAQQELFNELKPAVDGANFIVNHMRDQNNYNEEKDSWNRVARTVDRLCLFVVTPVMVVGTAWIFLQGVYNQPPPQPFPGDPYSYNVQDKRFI
# Sequence of α3β4*-nAChR (P32297 32-505): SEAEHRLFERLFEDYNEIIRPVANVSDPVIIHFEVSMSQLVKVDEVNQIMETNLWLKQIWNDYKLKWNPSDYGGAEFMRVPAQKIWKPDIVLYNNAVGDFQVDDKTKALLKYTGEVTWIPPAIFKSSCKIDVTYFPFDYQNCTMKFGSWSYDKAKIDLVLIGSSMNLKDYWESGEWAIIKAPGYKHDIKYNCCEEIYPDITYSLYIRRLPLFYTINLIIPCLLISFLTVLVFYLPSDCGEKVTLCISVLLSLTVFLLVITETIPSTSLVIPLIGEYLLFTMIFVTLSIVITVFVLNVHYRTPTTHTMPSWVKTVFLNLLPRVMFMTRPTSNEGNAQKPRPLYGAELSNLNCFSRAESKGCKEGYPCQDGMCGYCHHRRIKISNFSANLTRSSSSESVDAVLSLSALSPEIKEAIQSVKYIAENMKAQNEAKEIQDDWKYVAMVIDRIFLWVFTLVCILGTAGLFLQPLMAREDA
# Sequence of α3β4*-nAChR (P30926 22-498): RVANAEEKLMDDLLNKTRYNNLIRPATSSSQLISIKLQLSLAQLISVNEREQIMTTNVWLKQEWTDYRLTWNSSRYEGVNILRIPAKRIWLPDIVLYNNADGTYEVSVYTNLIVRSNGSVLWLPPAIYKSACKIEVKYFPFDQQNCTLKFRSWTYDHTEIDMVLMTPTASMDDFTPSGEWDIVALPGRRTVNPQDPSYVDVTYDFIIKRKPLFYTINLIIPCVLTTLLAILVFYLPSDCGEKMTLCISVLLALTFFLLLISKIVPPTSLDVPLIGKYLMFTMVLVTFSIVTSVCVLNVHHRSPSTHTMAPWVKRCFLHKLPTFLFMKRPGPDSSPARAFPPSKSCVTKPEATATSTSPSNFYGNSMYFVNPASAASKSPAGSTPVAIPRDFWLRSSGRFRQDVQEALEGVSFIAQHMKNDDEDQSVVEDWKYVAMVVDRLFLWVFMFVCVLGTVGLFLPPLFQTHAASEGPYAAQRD
# Sequence of CYP3A4 (P08684 whole entry): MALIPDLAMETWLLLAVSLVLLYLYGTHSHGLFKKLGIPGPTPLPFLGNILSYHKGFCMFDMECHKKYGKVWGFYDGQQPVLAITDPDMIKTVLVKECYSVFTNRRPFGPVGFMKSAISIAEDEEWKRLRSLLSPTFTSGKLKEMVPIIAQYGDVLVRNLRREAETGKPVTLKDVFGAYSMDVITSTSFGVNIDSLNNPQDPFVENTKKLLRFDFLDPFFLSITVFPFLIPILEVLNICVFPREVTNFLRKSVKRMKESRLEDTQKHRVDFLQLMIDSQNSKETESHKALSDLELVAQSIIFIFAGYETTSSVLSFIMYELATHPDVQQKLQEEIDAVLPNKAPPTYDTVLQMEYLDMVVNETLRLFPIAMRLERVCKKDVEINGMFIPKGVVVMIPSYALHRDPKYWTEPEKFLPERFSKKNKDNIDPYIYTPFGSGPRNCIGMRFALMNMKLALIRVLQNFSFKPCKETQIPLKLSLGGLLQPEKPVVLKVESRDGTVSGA
# Sequence of human α4β2-nAChR (P43681 29-627 limits assumed): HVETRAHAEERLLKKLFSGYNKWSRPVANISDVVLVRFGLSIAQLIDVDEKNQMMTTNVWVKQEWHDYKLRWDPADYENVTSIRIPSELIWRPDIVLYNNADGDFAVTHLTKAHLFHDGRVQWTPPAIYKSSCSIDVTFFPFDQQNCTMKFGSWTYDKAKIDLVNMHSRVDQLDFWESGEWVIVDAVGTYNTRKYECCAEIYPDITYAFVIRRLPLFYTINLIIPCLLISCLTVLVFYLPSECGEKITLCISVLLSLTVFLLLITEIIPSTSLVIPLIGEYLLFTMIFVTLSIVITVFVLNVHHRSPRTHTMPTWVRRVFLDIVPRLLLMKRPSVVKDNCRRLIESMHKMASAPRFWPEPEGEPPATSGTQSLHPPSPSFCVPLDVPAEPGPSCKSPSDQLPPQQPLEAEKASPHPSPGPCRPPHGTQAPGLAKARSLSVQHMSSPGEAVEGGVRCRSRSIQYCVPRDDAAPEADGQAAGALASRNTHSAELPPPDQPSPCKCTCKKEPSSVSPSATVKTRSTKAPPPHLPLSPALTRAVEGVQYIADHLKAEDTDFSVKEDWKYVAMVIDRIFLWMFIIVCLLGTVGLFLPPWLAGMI
# Sequence of human α4β2-nAChR (P17787 26-502): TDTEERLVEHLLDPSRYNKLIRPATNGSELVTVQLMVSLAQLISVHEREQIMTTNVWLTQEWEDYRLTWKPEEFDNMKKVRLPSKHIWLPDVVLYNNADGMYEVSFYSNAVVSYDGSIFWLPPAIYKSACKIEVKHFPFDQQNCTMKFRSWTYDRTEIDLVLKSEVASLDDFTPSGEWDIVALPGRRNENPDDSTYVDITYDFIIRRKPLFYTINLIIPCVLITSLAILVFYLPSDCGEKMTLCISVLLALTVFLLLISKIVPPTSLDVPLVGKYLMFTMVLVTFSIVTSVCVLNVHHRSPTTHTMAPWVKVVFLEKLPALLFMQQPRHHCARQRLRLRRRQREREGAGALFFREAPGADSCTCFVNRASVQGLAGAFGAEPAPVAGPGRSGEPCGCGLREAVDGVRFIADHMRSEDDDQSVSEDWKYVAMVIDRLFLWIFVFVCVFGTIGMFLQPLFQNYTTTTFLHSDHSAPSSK
# Sequence of CYP2D6 (P10635 whole entry): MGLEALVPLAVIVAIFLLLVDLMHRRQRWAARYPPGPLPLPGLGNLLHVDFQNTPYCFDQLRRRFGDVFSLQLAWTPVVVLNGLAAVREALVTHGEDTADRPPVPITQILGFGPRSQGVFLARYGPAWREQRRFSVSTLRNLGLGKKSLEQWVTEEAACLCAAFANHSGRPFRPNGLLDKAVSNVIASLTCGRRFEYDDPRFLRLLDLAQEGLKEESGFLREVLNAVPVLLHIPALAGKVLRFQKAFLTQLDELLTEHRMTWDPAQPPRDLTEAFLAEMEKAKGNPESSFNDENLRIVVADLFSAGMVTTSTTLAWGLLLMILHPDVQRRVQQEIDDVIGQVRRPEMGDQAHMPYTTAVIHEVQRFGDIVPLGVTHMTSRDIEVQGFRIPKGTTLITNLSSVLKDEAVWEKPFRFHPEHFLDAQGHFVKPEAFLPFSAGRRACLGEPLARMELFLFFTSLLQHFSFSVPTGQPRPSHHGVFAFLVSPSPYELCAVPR
compound,measurement,setting,value
"FCc1cc(OC[C@@H]2CCN2)on1 [Compound 39, 5-[(2(S)-Azetidinyl)methoxy]-3-(fluoromethyl)isoxazole Trifluoroacetate]",Activity at the α1β1γδ-nAChR,[1],little activity; also recorded: inactive
Clc1ccc(OC[C@H]2CCN2)cn1 [Compound 10],Potency relative to morphine,[2],50 times
"Cc1cc(OC[C@@H]2CCN2)on1 [Compound 43, 5-[(2(S)-Azetidinyl)methoxy]-3-methylisoxazole]","CYP2C19 activity, % of the control",[3],≥ 70%
same,Activity at the α1β1γδ-nAChR,[1],little activity; also recorded: inactive
same,"CYP2D6 activity, % of the control",[4],≥ 70%
same,Inhibition in the preliminary binding screen,[5],≤ 50%
same,"CYP1A2 activity, % of the control",[6],≥ 70%
same,Agonist activity at α3β4*-nAChRs,[7],full agonist activity
same,"CYP2B6 activity, % of the control",[8],≥ 70%
same,"CYP3A4 activity, % of the control",[9],≥ 70%
same,Agonist activity at α4β2-nAChRs,[10],full agonist activity
same,Immobility in the forced swim test,"[11]; 1 mg/kg ip, 30 min before test, 6 min trial, vs vehicle",reduced immobility
same,Immobility in the forced swim test,"[11]; 1 mg/kg orally, 30 min before test, 6 min trial",inactive
same,Immobility in the forced swim test,"[11]; 5 mg/kg ip, 30 min before test, 6 min trial, vs vehicle",reduced immobility
same,"CYP2C9 activity, % of the control",[12],≥ 70%
"CN[C@H]1CC[C@@H](c2ccc(Cl)c(Cl)c2)c2ccccc21 [sertraline, reference compound]",Immobility in the forced swim test,"[11]; positive control, 10 mg/kg (10 or 20 mg/kg in method), ip or orally",expected decrease in immobility
"Cc1cc([C@H]2C[C@@H]3CC[C@H]2N3)on1 [Compound 7, epiboxidine]",Fold less potent than compound 4 in the displacement of [3H]nicotine,[13],approximately 10 fold
same,Fold more potent than compound 6 in the displacement of [3H]nicotine,[13],17 fold
